Data published in patent publication US20240335439A1, “USE OF AND METHOD FOR TELAPREVIR IN PREPARATION OF DRUG FOR TREATING AN ISCHEMIA/REPERFUSION INJURY AND CYTOPROTECTIVE DRUG” (THE THIRD XIANGYA HOSPITAL OF CENTRAL SOUTH UNIVERSITY, priority 2021, published 2024).

Assays:
SH-SY5Y nerve cells = experiment: NMDA induced nerve cell injury model of SH-SY5Y cells, MTS viability; type: cell-based; conditions: 1 mM NMDA 30 minutes, then 24 h culture; telaprevir 1, 5, 10 μM; FIG. 5C
Description: SH-SY5Y nerve cells were purchased from the Xiangya Cell Bank of Central South University.
Cell culture method: Following a conventional cell culture method, the above SH-SY5Y nerve cells were cultured in an RPMI 1640 medium (containing 20% of fetal bovine serum). When the cells fused and grew to 80-90%, the cells were digested with a trypsin. After the cells shrank and became round and the intercellular space was obvious, the digestion was immediately terminated with a medium, the cells were dispersed and blown evenly into a single suspension state, passaged in bottles, and cultured in a 37° C. cell incubator containing 5% of CO2.
The SH-SY5Y cells at the fusion rate of 80-90% or more can be seeded on plates. […]
Cell viability was detected by MTS.
The measurement followed the operating instructions of a commercially available MTS kit (Promega (Beijing) Biotech Co., Ltd.). […] The absorbance of the cells at 490 nm was measured by enzyme-linked immunosorbent assay (the absorbance was controlled at 0.7-1.2), where the absorbance value reflected relative cell viability. Calculation: cell viability (%)=absorbance of the drug group/absorbance of the control group×100%. When the absorbance value of each group was calculated, the absorbance value of the background blank control group was first subtracted.

[1] = system: Alzheimer's disease mouse models; experiment: Alzheimer's disease mouse model (Aβ1-42 into hippocampus), new/old object recognition experiment; type: in vivo, ICR mice; conditions: telaprevir 40 mg/kg intramuscular daily for 17 days; ##P<0.01 vs vehicle group, FIG. 7
Description: Experimental animals: 7-week-old healthy male ICR mice weighing 25-30 g. The experimental animals were raised for one week in an environment with a temperature of 25° C., a relative humidity of 60%, free drinking water, and timed and quantified feeding, and then administered according to the requirements of each experimental group.
Building of an Alzheimer's disease mouse model and drug treatment: Aβ1-42 was purchased from MCE Reagent Company, dissolved in DMSO, diluted with physiological saline to 2 μg/μL, and incubated in an incubator at 37° C. for 7 days to convert the Aβ1-42 into an aggregated state. […]
A learning and memory ability and cognitive function of mice were detected by a Morris water maze experiment and a new/old object recognition experiment.
According to the requirements of the new/old object recognition experiment, the experiment included three stages: an adaptation period, a training period, and a testing period. […] One of the two objects was replaced with another object with a different shape and color (denoted as C), and the time for the experimental mice to probe the two different objects within 10 minutes was recorded. […]

For CCC[C@H](NC(=O)[C@@H]1[C@H]2CCC[C@H]2CN1C(=O)[C@@H](NC(=O)[C@@H](NC(=O)c1cnccn1)C1CCCCC1)C(C)(C)C)C(=O)C(=O)NC1CC1 [telaprevir], the “cell viability (MTS) of NMDA treated SH-SY5Y cells” value (SH-SY5Y nerve cells) was “significantly inhibit a decrease” and the “cognitive index, new/old object recognition” value [1] was “significantly increased”.
